Test results reported in patent publication US11964943B2, “3,5-diarylidenyl-n-substituted-piperid-4-one-derived inhibitors of Stat3 pathway activity and uses thereof” (priority 2017, dated 2024).
Converted amounts (≈) assume the structure as drawn. “Also recorded” adds a separate entry of the source.

Legend:
[1] = tested on: Stat3, Stat1α, Stat5a and Stat5b; experiment: Stat selectivity: immunoblotting and TransAM STAT Family ELISA; format: cell-based; conditions: DU145 cells, 18 h
Experimental: The Active Motif TransAMX Stat Family ELISA kit was utilized to study the specificity of IE-8 for Stat3, 20 μg of whole cell extract was used and Stat activity was assessed according to the manufacturer's protocol. Briefly, 30 μl of Complete Binding Buffer (provided and supplemented with 2 μl of 1M DTT and 10 μl of Herring sperm DNA per ml of Binding Buffer AM6) was added to each well used. 20 μl of sample (nuclear extract diluted in Complete Lysis Buffer) per well, were used, while Complete Lysis Buffer (provided and supplemented with 1 μl of 1 M DTT and 10 μl of Protease Inhibitor Cocktail per ml of Lysis Buffer AM1) only, was used for blanks. The plate was sealed with the provided adhesive cover and incubated for 1 hour at room temperature, with mild agitation, on a rocking platform. At the end of incubation, the wells were washed 3 times with 200 μl 1× Wash Buffer (provided). 100 μl of one of the diluted Stat antibodies (1:1000 dilution in 1× Antibody binding buffer for the Stat3, Stat1, Stat5A and Stat5B antibodies) were added to all the used wells. […] Absorbance was read on a spectrophotometer immediately thereafter, at 450 nm, with a reference wavelength of 655 nm.
TransAM® STAT Family ELIS Assay. […] 20 μg of whole cell extract was used and STAT activity was assessed according to the manufacturers protocol.

[2] = tested on: DU145 cells; experiment: SRB growth inhibition and combination index with cisplatin, DU145; format: cell-based
Experimental: (§1) The affected fractions were calculated from the SRB or MTT assay absorbance values and were registered to derive the respective CI values and isobolograms. A CI value of less than 1 (one) indicates synergy.
The SRB assay was used to assess cell growth inhibition by IE-8 alone and in combination with cisplatin. […] For combination studies drug treatments were sequential with IE-8 applied first followed by cisplatin for 1 h. […] Absorbance was read at 540 nm and results were normalized to untreated controls. For analysis of GC50 values and statistical significance, non-linear regression analysis with a comparison of fits was performed with the GraphPad Prism 6.0 software.
Drug Combination studies. Sulforhodamine B (SRB) Cell Growth Inhibition Assay. The SRB assay was used to assess cell growth inhibition by 8 h alone and in combination with cisplatin. […] For combination studies drug treatments were sequential with 8 h applied first followed by cisplatin for 1 h. […] Absorbance was read at 540 nm and results were normalized to untreated controls. For analysis of GC50 values and statistical significance, non-linear regression analysis with a comparison of fits was performed with the GraphPad Prism 6.0 software.

[3] = tested on: HCT116-oxaliplatin resistant cells; experiment: MTT growth inhibition and Chou-Talalay combination index with oxaliplatin; format: cell-based; design: key to Effect: affected fraction (Fa) from MTT absorbance, 0-1; conditions: for CI values in combination with oxaliplatin: fixed and non-fixed ratio combination treatments, in many instances
Experimental: The software Calcusyn was utilized for analysis of drug interactions using the Chou-Talalay combination index method (Chou, T.-C. Drug Combination Studies and Their Synergy Quantification Using the Chou-Talalay Method. [Cancer Res. 70, 440-446 (2010)]
as §1
MIT assay. Individual drug treatments and combinations were carried out as with the SRB assay. The MTT assay was carried out as previously (see Cytotoxicity studies sections) with the difference that it was completed in 96 h.

[4] = tested on: DU145 cells; experiment: Wound healing (scratch) assay; format: cell-based; conditions: 1 μM for 18 h prior to wounding; untreated control closed by 36 h
Experimental: DU145 cells were seeded in 6-well cell culture plates with Dulbecco's modified Eagle's medium/high glucose containing 10% FBS. After the cells reached 100% confluence, the monolayer was scratched using a […] pipette tip and washed once with PBS, to remove non-adherent cells. […] After drug incubation and wound induction, the medium was replaced with fresh drug-free medium and cells were observed under the microscope at the denoted time points.

[5] = Aqueous solubility (MultiScreen Solubility Filter Plate, shake-flask based)
Experimental: Aqueous solubility of Compounds of the Invention was measured with a modified version of the MultiScreen Solubility Filter Plate protocol (Millipore). This assay was based on the shake-flask equilibrium method and utilizes UV-Vis spectroscopy to quantify the unknown samples. The assay was conducted at room temperature at pH 7.4. […] Compound of the Invention was dissolved in DMSO, and the final DMSO concentration was 5% (v/v). Each sample was analyzed by UV-Vis spectroscopy at 10 nm increments from 260-600 nm to determine the optimal wavelength for detection and construct standard curves. […] A 4:1 mixture of supernatant to acetonitrile was added to a 96-well acrylic plate and analyzed by UV-Vis spectroscopy.
Aqueous solubility was measured with a modified version of the MultiScreen Solubility Filter Plate protocol (Millipore). This assay is based on the shake-flask equilibrium method and utilizes UV-Vis spectroscopy to quantify the unknown samples. The assay is conducted at room temperature at pH 7.4. […] Each compound was dissolved in DMSO, and the final DMSO concentration was 5% (v/v). Each sample was analyzed by UV-Vis spectroscopy at 10 nm increments from 260-600 nm to determine the optimal wavelength for detection and construct standard curves. […] A 4:1 mixture of supernatant to acetonitrile was added to a 96-well acrylic plate and analyzed by UV-Vis spectroscopy.

[6] = IE-8 2.0 μM 1 h, then oxaliplatin 0.1 μM 96 h
[7] = IE-8 2.0 μM 1 h, then oxaliplatin 1.0 μM 96 h
[8] = IE-8 2.0 μM 1 h, then oxaliplatin 10.0 μM 96 h
[9] = IE-8 2.0 μM 1 h, then oxaliplatin 20.0 μM 96 h
[10] = IE-8 2.0 μM 1 h, then oxaliplatin 40.0 μM 96 h
[11] = IE-8 2.0 μM 1 h, then oxaliplatin 60.0 μM 96 h
[12] = IE-8 2.0 μM 1 h, then oxaliplatin 80.0 μM 96 h
[13] = IE-8 2.0 μM 1 h, then oxaliplatin 100.0 μM 96 h
[14] = IE-8 2.0 μM 1 h, then oxaliplatin 200.0 μM 96 h
[15] = IE-8 2.5 μM 1 h, then oxaliplatin 0.1 μM 96 h
[16] = IE-8 2.5 μM 1 h, then oxaliplatin 1.0 μM 96 h
[17] = IE-8 2.5 μM 1 h, then oxaliplatin 10.0 μM 96 h
[18] = IE-8 2.5 μM 1 h, then oxaliplatin 20.0 μM 96 h
[19] = IE-8 2.5 μM 1 h, then oxaliplatin 40.0 μM 96 h
[20] = IE-8 2.5 μM 1 h, then oxaliplatin 60.0 μM 96 h
[21] = IE-8 2.5 μM 1 h, then oxaliplatin 80.0 μM 96 h
[22] = IE-8 2.5 μM 1 h, then oxaliplatin 100.0 μM 96 h
[23] = IE-8 2.5 μM 1 h, then oxaliplatin 200.0 μM 96 h
[24] = IE-8 3.0 μM 1 h, then oxaliplatin 0.1 μM 96 h
[25] = IE-8 3.0 μM 1 h, then oxaliplatin 1.0 μM 96 h
[26] = IE-8 3.0 μM 1 h, then oxaliplatin 10.0 μM 96 h
[27] = IE-8 3.0 μM 1 h, then oxaliplatin 20.0 μM 96 h
[28] = IE-8 3.0 μM 1 h, then oxaliplatin 40.0 μM 96 h
[29] = IE-8 3.0 μM 1 h, then oxaliplatin 60.0 μM 96 h
[30] = IE-8 3.0 μM 1 h, then oxaliplatin 80.0 μM 96 h
[31] = IE-8 3.0 μM 1 h, then oxaliplatin 100.0 μM 96 h
[32] = IE-8 3.0 μM 1 h, then oxaliplatin 200.0 μM 96 h
[33] = oxaliplatin 1.0 μM 1 h, 3 h later IE-8 1.0 μM until 96 h
[34] = oxaliplatin 10.0 μM 1 h, 3 h later IE-8 1.0 μM until 96 h
[35] = oxaliplatin 20.0 μM 1 h, 3 h later IE-8 1.0 μM until 96 h
[36] = oxaliplatin 40.0 μM 1 h, 3 h later IE-8 1.0 μM until 96 h
[37] = oxaliplatin 60.0 μM 1 h, 3 h later IE-8 1.0 μM until 96 h
[38] = oxaliplatin 80.0 μM 1 h, 3 h later IE-8 1.0 μM until 96 h
[39] = oxaliplatin 200.0 μM 1 h, 3 h later IE-8 1.0 μM until 96 h
[40] = oxaliplatin 400.0 μM 1 h, 3 h later IE-8 1.0 μM until 96 h

COc1cc(/C=C2\CN(c3ccccc3)C/C(=C\c3cc(OC)c(OC)c(OC)c3)C2=O)cc(OC)c1OC [IE-8, 3,5-Di(3,4,5-trimethoxybenzylidene)-1-phenylpiperidin-4-one]
selectivity for Stat3 over Stat1, Stat5a and Stat5b [1]: selectively inhibits pStat3^Tyr705 without inhibiting pStat1^Tyr701 or pStat5^Tyr694; also recorded: selectively inhibit the Stat3-DNA binding activity over that of Stat1α, Stat5a and Stat5b; also recorded: selective for Stat3 over Stat1, Stat5a, and Stat5b | combination index (CI) with cisplatin ([2]; 5 μM IE-8 1 h then cisplatin 1 h, non-fixed ratio): below 1 | CI-value [3, 6]: 1.558 | Effect [3, 6]: 0.1065 | CI-value [3, 7]: 1.979 | Effect [3, 7]: 0.0954 | CI-value [3, 8]: 2.754 | Effect [3, 8]: 0.1575 | CI-value [3, 9]: 1.58 | Effect [3, 9]: 0.315 | CI-value [3, 10]: 1.172 | Effect [3, 10]: 0.4676 | CI-value [3, 11]: 1.135 | Effect [3, 11]: 0.5256 | CI-value [3, 12]: 0.827 | Effect [3, 12]: 0.6386 | CI-value [3, 13]: 0.7749 | Effect [3, 13]: 0.678 | CI-value [3, 14]: 0.4016 | Effect [3, 14]: 0.8582 | CI-value [3, 15]: 0.721 | Effect [3, 15]: 0.5165 | CI-value [3, 16]: 1.405 | Effect [3, 16]: 0.2143 | CI-value [3, 17]: 1.985 | Effect [3, 17]: 0.231 | CI-value [3, 18]: 1.805 | Effect [3, 18]: 0.313 | CI-value [3, 19]: 0.8326 | Effect [3, 19]: 0.6087 | CI-value [3, 20]: 0.8009 | Effect [3, 20]: 0.6559 | CI-value [3, 21]: 0.5921 | Effect [3, 21]: 0.76 | CI-value [3, 22]: 0.7993 | Effect [3, 22]: 0.7021 | CI-value [3, 23]: 0.4777 | Effect [3, 23]: 0.855 | CI-value [3, 24]: 0.8489 | Effect [3, 24]: 0.527 | CI-value [3, 25]: 1.924 | Effect [3, 25]: 0.171 | CI-value [3, 26]: 1.573 | Effect [3, 26]: 0.3259 | CI-value [3, 27]: 1.453 | Effect [3, 27]: 0.4064 | CI-value [3, 28]: 0.7871 | Effect [3, 28]: 0.6743 | CI-value [3, 29]: 0.8214 | Effect [3, 29]: 0.6878 | CI-value [3, 30]: 0.5584 | Effect [3, 30]: 0.8108 | CI-value [3, 31]: 0.48 | Effect [3, 31]: 0.8527 | CI-value [3, 32]: 0.4763 | Effect [3, 32]: 0.877 | CI values in combination with oxaliplatin [3]: < 1 | CI-value [3, 33]: 5.476 | Effect [3, 33]: 0.2692 | CI-value [3, 34]: 1.482 | Effect [3, 34]: 0.6799 | CI-value [3, 35]: 0.9954 | Effect [3, 35]: 0.7838 | CI-value [3, 36]: 0.5439 | Effect [3, 36]: 0.8908 | CI-value [3, 37]: 0.5183 | Effect [3, 37]: 0.897 | CI-value [3, 38]: 0.4279 | Effect [3, 38]: 0.9184 | CI-value [3, 39]: 0.3786 | Effect [3, 39]: 0.93 | CI-value [3, 40]: 0.488 | Effect [3, 40]: 0.9045 | time for which full wound closure was prevented [4]: up to 60 h | solubility at 6 h ([5]; aqueous buffer with 5% DMSO, pH 7.4, aqueous with cosolvent or surfactant or cyclodextrin, kinetic from dmso stock): 200 ± 30 µM (≈ 106 µg/mL)

3,5-Di(3,4,5-trimethoxybenzylidene)-1-phenylpiperidin-4-one [IE-8]
selectivity for Stat3 over Stat1, Stat5a and Stat5b [1]: selective for STAT3 over STAT1 | combination index (CI) with cisplatin ([2]; IE-8 18 h then cisplatin 1 h, fixed ratio 1:50): > 1 | CI values in combination with oxaliplatin [3]: < 1 | time for which full wound closure was prevented [4]: up to 60 h | Solubility in aqueous buffer ([5]; pH 7.4, room temperature, 5% DMSO, free base): 200 ± 30 µM
